Assay results reported in patent publication US20090179638A1, “ASSAY FOR IDENTIFYING INHIBITORS OF NEURONAL APOPTOTIC PATHWAYS” (AEGERA THERAPEUTICS INC., priority 2006, published 2009).
“Also recorded” adds a separate entry of the source.

What was measured:
SCG neurons = assay: NGF-withdrawal induced cell death of SCG neurons (MTS assay); format: cell-based, rat; settings: SCG neurons withdrawn from NGF, 48 hours
Method: FIG. 1 is a graph showing that compound 1 inhibits NGF-withdrawal induced cell death. Cultures of rat SCG neurons (see Materials and Methods) initially maintained in 10 ng/ml of NGF were withdrawn from NGF and maintained in media containing compound 1 at the concentrations indicated for 48 hours. Cellular viability was assayed using an MTS assay. (*=P<0.01 relative to no compound 1). Experiments were performed three times with identical results.
Survival of neonatal primary sympathetic neurons is dependent on trophic support provided by Neuronal Growth Factor (NGF) (reviewed in (Young et al., 2004)).
(§1) Cell culture, infection, transfection and immunoblotting. Sympathetic neurons were maintained and deprived of NGF as previously described (Bamji et al., 1998; Ma et al., 1992). PC12^rtTA cells were maintained and infected as previously described (Majdan et al., 1997; Salehi et al., 2002); for NRAGE, […] doxycycline was added to all plates at time of infection. Wildtype and HSF1 nullizygous immortalized mouse embryonic fibroblasts (MEFs) were maintained in DMEM containing 10% fetal calf serum, 1 μM β-mercaptoethanol, 1% non-essential amino acids, 1% L-glutamine, 1% antimycotic solution and 1% sodium pyruvate (all from GibcoBRL). Sympathetic neuron survival was assessed using the MTS assay according to the manufacturer's instructions (Promega). Analysis of PC12 cell death was determined using a lactate dehydrogenase (LDH) assay (Roche) as per the manufacturer's instructions. Transfections using plasmids or RNAi were performed using Lipofectamine 2000. Immunoblotting was performed as previously described (Majdan et al., 1997; Salehi et al., 2002).

PC12^rtTA cells = assay: p75NTR- or NRAGE-induced cell death of PC12rtTA cells (LDH release assay); format: cell-based; settings: for protection from Adp75- or AdNRG-induced cell death: increasing concentrations, LDH
Method: FIGS. 2A and 2B are graphs showing that compound 1 inhibits p75NTR or NRAGE induced JNK activation and cell death. Compound 1 inhibits NRAGE (A) or p75NTR (B) mediated cell death. PC12^rtTA cells were infected with recombinant adenoviruses expressing full-length NRAGE (AdNRG) at 5 MOI, full length p75NTR (Adp75) at 50 or 100 MOI, or the control protein β-galactosidase (AdLacZ) (at 5 MOI in (A) and 50 MOI in (B)). At time of infection, the cells were treated with an increasing concentration of compound 1, or with vehicle alone, as indicated. After 40 hours, cells were assayed for death using the lactate dehydrogenase (LDH) assay; untreated cells (Un) and cells treated with 1% Triton X-100 (Tx) were used to delineate the output range of the assay. Results are normalized relative to those obtained with 1% Triton (Tx), and represent the mean±standard deviation of a representative experiment performed in triplicate (*=P<0.005 relative to no compound 1).
PC12^rtTA were infected with adenoviruses encoding p75NTR (Adp75), NRAGE (AdNRG), or as a control, LacZ (AdLacZ), and were concurrently exposed to increasing concentrations of compound 1 for a period of 40 hours. Cell death was assessed using an LDH release assay. […] Treatment with 40 μM compound 1 reduced p75NTR- or NRAGE-induced cell death by greater than 90%.
as §1

JNK = assay: NRAGE- and p75NTR-induced JNK activation in PC12rtTA cells (c-Jun phosphorylation, caspase-3 cleavage, immunoblot); format: cell-based; settings: for c-Jun phosphorylation: AdNRG infected, 30 hours (FIG. 6C)
Method: FIGS. 2C and 2D are photographs of Western blots which illustrate that compound 1 inhibits NRAGE- and p75NTR-induced JNK activation. C, D: Compound 1 inhibits NRAGE- and p75NTR-induced JNK activation. PC12^rtTA cells were infected with AdNRG at 5 MOI (C), with Adp75 at 50 MOI (D), or with AdLacZ at an equivalent MOI for each experiment, as indicated. At time of infection, the cells were treated with increasing concentrations of compound 1, or with vehicle alone, as indicated. […] Experiments in Panel A-D were performed three times with essentially identical results.
Activation of JNK activity is necessary for the induction of p75NTR- or NRAGE-initiated caspase cleavage and cell death (Bhakar et al., 2003; Salehi et al., 2002). Therefore, the effect of compound 1 on the activity of JNK was assessed by analyzing alterations in the phosphorylation level of the JNK target, c-Jun, and the cleavage status of caspase-3. […] Thus, the suppression of JNK signaling and caspase-3 cleavage mediated by compound 1 occurred with a dose-dependency similar to the anti-apoptotic activity of compound 1.
as §1

| SMILES | protection from NGF-withdrawal induced cell death (SCG neurons) | protection from Adp75- or AdNRG-induced cell death (PC12^rtTA cells; 40 hours) | c-Jun phosphorylation (JNK; 40 μM) | reduction of p75NTR- or NRAGE-induced cell death (PC12^rtTA cells; 40 μM, 40 hours, LDH release) | toxic effect in cells infected with the LacZ control (PC12^rtTA cells; 80 μM) | inhibition of p75NTR- or NRAGE-induced apoptosis (PC12^rtTA cells; 80 μM (highest concentration tested)) | c-Jun phosphorylation and caspase-3 cleavage (JNK; 10 μM, AdNRG infected cells) | decrease in c-Jun phosphorylation and caspase-3 cleavage (JNK; 40 μM, AdNRG infected cells) | ability to block c-jun phosphorylation in cells transfected with HSP70 RNAi (JNK; HSP70 siRNA transfected PC12rtTA cells) | JNK inhibitory effects (JNK; extended (24 hour) incubation, 40 μM) | JNK inhibitory effects (JNK; short term (1 hr) incubation, 40 μM) |
| --- | --- | --- | --- | --- | --- | --- | --- | --- | --- | --- | --- |
| NS(=O)(=O)c1nn2cc(-c3ccc(N4CCOCC4)cc3)nc2s1 [Compound 2] | protected | protected | reducing | – | – | – | – | – | – | – | – |
| NS(=O)(=O)c1nn2cc(-c3ccccc3)nc2s1 [Compound 1] | protected; also recorded: inhibits | strongly attenuated; also recorded: protected | reducing | greater than 90% | slight toxic effect | effectively inhibited apoptosis | significant decrease | virtually complete | small but consistent attenuation | occurred | not short term |
